A short description of data set [1]: Absorption maximum. The class given is physicochemical.
Data set [2] relates to human myeloid leukemia U937 cell line. Description: Cell viability of tumor cells exposed to photosensitizer and electromagnetic radiation. The format is cell-based. The following applies: for viability at 13 µM: 13 μM compound; for viability at 25 µM: 25 μM compound; for viability at 6 µM: 6 μM compound. As for the experimental part:
A general procedure is carried out for measuring cell viability upon exposure of tumor cells to the fused ring diaza compound of Formula (FX33) and electromagnetic radiation. The compound of Formula (FX33) has an absorption maxima (λmax) of 334 nm. The cell viability measurements are carried out using human myeloid leukemia U937 cell line by the standard WST-1 assay. In this procedure, U397 Leukemia cells (0.5×10^6) are plated in standard T-25 cell culture flasks, and are exposed to four controls and a series of test conditions corresponding to a range of fused ring diaza compound concentrations, summarized in Table 1.
The compound of formula (FX33) is dissolved in 20 to 30% DMSO at an initial concentration of 2-4 mM and serially diluted to the final desired value such that the amount of DMSO exposed to the cells is below 0.5%. The cells are incubated at 37° C. with various concentrations of the fused ring diaza compound photosensitizer for about 30 minutes prior to exposure to electromagnetic radiation. […] It should be noted that in the present study, the electromagnetic radiation source is not optimized with respect to power and wavelength. The viability of cells is assessed after 24 hours following exposure to electromagnetic radiation. The electromagnetic radiation source is a B-100SP High Intensity Lamp from UVP. Once exposure is complete, cells are processed to determine percent viability using Hank's Balanced Salt Solution (HBSS), Trypan blue stain, and a hemacytometer to count live and dead cells. The number of viable cells is determined and percent viability is determined using:
FIG. 4 provides cell viability results for test conditions wherein cells are exposed to electromagnetic radiation and the compound of formula (FX33) for concentrations of 6 μM, 13 μM and 25 μM. […] Cells are incubated in the absence of the compound of formula (FX33) (0 μM) and with the compound of formula (FX33) at concentrations of 6 μM, 13 μM and 25 μM. The cells are exposed to electromagnetic radiation from a B-100SP High Intensity Lamp for 0, 5, 10, and 20 minutes. […] In the presence of 13 μM of the diaza compound of formula (FX33), cells have about 94% viability with electromagnetic radiation exposure for 5 minutes, about 95% viability with electromagnetic radiation exposure for 10 minutes, and about 58% viability with electromagnetic radiation exposure for 20 minutes. In the presence of 25 μM of the compound of formula (FX33), cells have about 86% viability with electromagnetic radiation exposure for 5 minutes, about 30% viability with electromagnetic radiation exposure for 10 minutes, and about 8% viability with electromagnetic radiation exposure for 20 minutes.

Setting [3] is: Homo sapiens, U-937, 5 min, electromagnetic radiation exposure 5 minutes.
Setting [4] is: Homo sapiens, U-937, 10 min, electromagnetic radiation exposure 10 minutes.
Where [5] appears, read: Homo sapiens, U-937, 20 min, electromagnetic radiation exposure 20 minutes.

The term viability denotes the share of living cells, or the viability signal relative to a control.

Turning to `COc1cc2c3c(cc(=O)oc3c1OC)NN=C2` [formula (FX33)], the “absorption maxima (λmax)” value in data set [1] turned out to be 334 nm. The “effect on cell viability (in words)” value in data set [2] (6, 13 and 25 μM, exposure 0, 5, 10 and 20 minutes) was “concentration-dependent and electromagnetic radiation exposure time-dependent decreases in cell viability”. Moreover, the viability at 13 µM in data set [2] (setting [3]) is roughly 94%; in data set [2] (setting [4]) it was roughly 95%; in data set [2] (setting [5]) it was roughly 58%. Further, the viability at 25 µM is roughly 86% in data set [2] (setting [3]), roughly 30% in data set [2] (setting [4]) and roughly 8% in data set [2] (setting [5]). Besides, the viability at 6 µM in data set [2] (setting [4]) was 100%; in data set [2] (setting [5]), roughly 92%; in data set [2] (Homo sapiens, U-937, electromagnetic radiation exposure 5 minutes (B-100SP lamp, 325-425 nm), viability assessed after 24 hours), 100%. In addition, the IC50 in data set [2] (Homo sapiens, U-937, 20 min, cells exposed to electromagnetic radiation and photosensitizer for 20 minutes, read-out: VC50/20 (concentration at which 50% decrease in cell viability is observed)) was 5.25 µM.

The values are drawn from patent US20110264026A1, “Azo Derivatives and Uses Thereof in Phototherapy” (priority 2008, published 2011).
